From patent publication US11357779B2 (G1 Therapeutics, Inc., priority 2018, dated 2022)

Assay: Dynamic vapor sorption (moisture sorption) experiment
Conditions: for stability in the moisture sorption experiment (XRPD of dried sample): after DVS
Procedure: Dynamic vapor sorption experiments were performed on Form A, Form B, and Form D. Table 103 provides the results of the DVS experiment.

SMILES | moisture adsorbed (60% RH) [wt %] | moisture adsorbed (90% RH) [wt %] | % wt change at 60% RH (DVS, 60% RH) [% wt] | % wt change at 90% RH (DVS, 90% RH) [% wt] | stability in the moisture sorption experiment (XRPD of dried sample) (dried at 60° C. and 0% RH) | XRPD (post DVS) (after moisture sorption experiment, dried at 60° C. and 0% RH)
CC(C)N1CCN(c2ccc(Nc3ncc4cc5n(c4n3)C3(CCCCC3)CNC5=O)nc2)CC1 [Form B] | 5.8 | 5.9 | 5.8 | 5.9 | stable | Form B
CC(C)N1CCN(c2ccc(Nc3ncc4cc5n(c4n3)C3(CCCCC3)CNC5=O)nc2)CC1 [Compound II, 2′-((5-(4-isopropylpiperazin-1-yl)pyridin-2-yl)amino)-7′,8′-dihydro-6′H-spiro[cyclohexane-1,9′-pyrazino[1′,2′:1,5]pyrrolo[2,3-d]pyrimidin]-6′-one] | – | – | – | – | remained in Form B | –
